Measured values: patent publication US9499462B2, “Isolated compounds from turmeric oil and methods of use” (Cognition Therapeutics, Inc., priority 2011, dated 2016)
Entries after “also recorded” stand apart in the source; their conditions may differ.

Tests used:
[1] = tested on: Abeta oligomer-induced acceleration of exocytosis (membrane trafficking) in primary neurons; experiment: Exocytosis / MTT membrane trafficking assay in mature primary neurons treated with Abeta oligomers; format: cell-based, Sprague-Dawley rat; details: for block of Abeta oligomer effects on membrane trafficking (in words): primary neurons in vitro; for efficacy relative to the parent CT0093 (in words) / potency relative to the parent CT0093 (in words): 21DIV primary neurons
Experimental: Primary neurons from E18 Sprague-Dawley rat embryos are plated at optimized concentrations in 384 well plates in NB media (Invitrogen). Neurons are maintained in cultures for 3 weeks, with twice weekly feeding of NB media with N2 supplement (Invitrogen). A test compound is added to cells, followed by addition of Vehicle or Abeta oligomer preparations (1.5 μM), and incubated for 1 to 24 hr. at 37° C. in 5% CO2. MTT reagent (3-(4,5-dimethylthizaol-2-yl)-2,5diphenyl tetrazolium bromide) (Roche Molecular Biochemicals) is reconstituted in phosphate buffered saline to 5 mg/mL. 10 μL of MTT labeling reagent is added to each well and incubated at 37° C. for 1 h, then imaged.
Each assay plate is formatted so that compounds are tested with and without Abeta on each plate.
Similar procedures for exocytosis assays/MTT assays can be found in the literature. See e.g., Liu Y, et. al., Detecting bioactive amyloid beta peptide species in Alzheimer's disease. J. Neurochem. 2004 November; 91(3):648-56; Liu Y, and Schubert D. “Cytotoxic amyloid peptides inhibit cellular 3-(4,5-dimethylthiazol-2-yl)-2,5-diphenyltetrazolium bromide (MTT) reduction by enhancing MTT formazan exocytosis.” J. Neurochem. 1997 December; 69(6):2285-93; and Liu Y, and Schubert D. “Treating Alzheimer's disease by inactivating bioactive amyloid beta peptide” Curr. Alzheimer Res. 2006 April; 3(2):129-35. Abeta 1-42 oligomers made according to published methods [See e.g. Dahlgren et al., “Oligomeric and fibrillar species of amyloid-beta peptides differentially affect neuronal viability” J Biol. Chem. 2002 Aug. 30; 277(35):32046-53. Epub 2002 Jun. 10. LeVine H 3rd. “Alzheimer's beta-peptide oligomer formation at physiologic concentrations” Anal Biochem. 2004 Dec. 1; 335(1):81-90; Shrestha et. al, “Amyloid beta peptide adversely affects spine number and motility in hippocampal neurons” Mol Cell Neurosci. 2006 November; 33(3):274-82. Epub 2006 Sep. 8; Puzzo et al., “Amyloid-beta peptide inhibits activation of the nitric oxide/cGMP/cAMP-responsive element-binding protein pathway during hippocampal synaptic plasticity” J. Neurosci. 2005 Jul. 20; 25(29):6887-97; Barghorn et al., “Globular amyloid beta-peptide oligomer—a homogenous and stable neuropathological protein in Alzheimer's disease” J. Neurochem. 2005 November; 95(3):834-47. Epub 2005 Aug. 31; Johansson et al., Physiochemical characterization of the Alzheimer's disease-related peptides A beta 1-42 Arctic and A beta 1-42 wt. […] Negative controls include vehicle-treated neurons as well as neurons treated with 28 μM concentrations of memantine. […] These controls, on each plate, serve as normalization tools to calibrate assay performance on a plate-by-plate basis.
Primary neuronal cultures are prepared as follows: Optimal cell density of primary neuronal cultures is determined based on cellular response to Abeta oligomers using the exocytosis assay as a readout, and immunohistochemical analysis of the relative proportion of glia to neurons in the cultures. Cultures are monitored on a weekly basis with immunohistochemistry and image processing-based quantification to monitor the percentage of the cultures that are neurons vs. glia (Glial cells). Cultures containing more than 20% glia (positive for GFAP) vs. neurons (staining positively with antibodies directed against MAP2) at the screening age of 21 days in vitro (21 DIV) are rejected.
Toxicity is monitored in each image-based assay via quantification of nuclear morphology visualized with the DNA binding dye DAPI (Invitrogen). Nuclei that are fragmented are considered to be in late stage apoptosis (Majno and Joris '95). Peptide lots producing unusual peptide size ranges or significant toxicity at a standard 1.5 uM concentration on neurons are rejected.

[2] = tested on: Abeta oligomer effects on memory; experiment: Fear conditioning assay (contextual memory, Abeta oligomer administration); format: in vivo, mice
Experimental: CT0109 and CT0093 were tested in an animal model of a memory-dependent behavioral task known as fear conditioning. The study protocol was designed based on published protocols (See e.g. Puzzo D, Privitera L, Leznik E, Fa M, Staniszewski A, Palmeri A, Arancio O. Picomolar amyloid-beta positively modulates synaptic plasticity and memory in hippocampus. J Neurosci. 2008 Dec. 31; 28(53):14537-45.). The formation of contextual memories is dependent upon the integrity of medial temporal lobe structures such as the hippocampus. In this assay mice were trained to remember that a particular salient context (conditioned stimulus; CS) is associated with an aversive event, in this case a mild foot shock (the unconditioned stimulus, US). Animals that show good learning will express an increase in freezing behavior when placed back into the same context. This freezing is absent in a novel context. Increased freezing in the context indicates strong hippocampal-dependent memory formation in animals. Memory tested in Fear Conditioning is sensitive to elevations of soluble Aβ. […] The fear condition model for memory was performed as described herein.

[3] = tested on: 9 month old male Swe/Ldn mice; experiment: Behavioral efficacy in transgenic Swe/Ldn mice (osmotic minipump); format: in vivo; details: transgenic mouse model of AD
Experimental: CT0093 was tested for its ability to reverse deficits in 9 month old male Swe/Ldn mice in a pilot study at 1 and 10 mg/kg/day via the osmotic minipump method.
Subcutaneous administration of 10 mg/kg/day of CT0093 (shown in gray squares and solid gray line and solid bar) achieved brain concentrations of 540 nM (FIG. 9).

[4] = tested on: Abeta oligomer-induced synapse loss; experiment: Abeta oligomer-induced synapse loss in vitro; format: cell-based
[5] = in vivo; details: rat, 1 mg/kg
Experimental: PK studies are performed at CEREP Inc. of Redmond Wash., according to their standard protocols: The plasma samples were processed using acetonitrile precipitation and analyzed by HPLC-MS or HPLC-MS/MS. Peak areas were recorded, and the concentrations of the test compound in the unknown plasma samples were determined using the respective calibration curve. The reportable linear range of the assay was determined, along with the lower limit of quantitation (LLQ).
Pharmacokinetic studies were performed according to the following protocols: The plasma samples were processed using acetonitrile precipitation and analyzed by HPLC-MS or HPLC-MS/MS. Peak areas were recorded, and the concentrations of the test compound in the unknown plasma samples were determined using the respective calibration curve. The reportable linear range of the assay was determined, along with the lower limit of quantitation (LLQ).

In the case of CC12CC3CC(C)(C1)CC(N)(C3)C2 [memantine, reference compound], the inhibition at 28 µM ([1]; Rattus norvegicus, Primary neuron, 28 μM memantine, plate control, read-out: inhibition of oligomer effects) is reported as 50%.
With COc1cc(CCC(C)NCc2ccc(C(F)(F)F)cc2)ccc1O (stereo not drawn) [CT0109, 4-(3-(4-(trifluoromethyl)benzylamino)butyl)-2-methoxyphenol] the EC50 ([1]; Rattus norvegicus, Primary neuron, MTT assay, primary neurons, read-out: EC50, block of Abeta oligomer-induced acceleration of exocytosis / oligomer effects on membrane trafficking) was 7 µM, the “block of Abeta oligomer effects on membrane trafficking (in words)” value (shortened to “block of Abeta oligomer effects … (in words)”) [1] was “effective in both prevention; also recorded: effective at stopping Abeta oligomer mediated effects on membrane trafficking” and the “pharmacological competition with Abeta oligomers” value ([1]; synthetic and human Alzheimer's patient-derived oligomers) was “exhibit pharmacological competition with both synthetic (A, B) and human Alzheimer's patient-derived (C, D) oligomers”. For the same molecule, the “block of Abeta oligomer effects on memory” value ([2]; 2 pmol dose, given prior to Abeta oligomers (200 nM), mice) was “blocked oligomer effects on memory; also recorded: completely blocked the effect of Abeta on memory”, the adverse behavioral changes ([2]; any dose) was “No adverse behavioral changes were observed” and the “effect of compound alone on memory” value ([2]; without Abeta) was “No effect of compound alone was observed”. For the same molecule, the “improvement of memory / cognitive performance of transgenic mice” value [3] was “capable of improving cognitive performance in the transgenic model of AD; also recorded: improve memory deficits in a transgenic mouse model of Alzheimer's disease” and the “block of Abeta oligomer-induced synapse loss” value [4] was “inhibition of processed product of amyloid precursor protein-mediated synapse loss”.
For O[C@H]1[C@H](O)[C@@H](O)[C@H](O)[C@@H](O)[C@@H]1O [scyllo-inositol (AZD-103), scyllo-inositol, reference compound], the “block of Abeta oligomer effects … (in words)” value [1] was “none were active”.
For CC1=CC=C(C(C)CC(CC(C)(C)O)NCC(C)C)CC1 (stereo not drawn) [CT1296, 4-(isobutylamino)-2-methyl-6-(4-methylcyclohexa-1,3-dienyl)heptan-2-ol], the “efficacy relative to the parent CT0093 (in words)” value [1] was “somewhat less efficacious”, the “potency relative to the parent CT0093 (in words)” value [1] was “maintained the potency of the parent compound” and the “efficacy relative to the parent CT0093 (in words)” value ([1]; listed as CT01296) was “slightly less efficacious”. For the same molecule, the clearance [5] was 120 ± 13 mL/min/kg and the half-life [5] was 1.15 ± 0.0833 h.
In the case of Cc1ccc(C(C)CC(CC(C)(C)O)NCC(C)C)cc1 (stereo not drawn) [CT1297, 4-(isobutylamino)-2-methyl-6-p-tolylheptan-2-ol], the “potency relative to the parent CT0093 (in words)” value [1] is reported as “significantly less potent than the parent CT0093”, the “fold less potent than the parent CT0093” value ([1]; primary screening assay) is reported as ~2 fold and the clearance [5] is reported as 101 ± 12 mL/min/kg. For the same molecule, the half-life [5] was 2.68 ± 1.62 h.
With C[C@]12N[C@H](Cc3ccccc31)c1ccccc12 [MK-801, reference compound] the “block of Abeta oligomer effects … (in words)” value [1] was “none were active”.
In the case of C[N+](C)(C)CCCCCC[N+](C)(C)C [hexamethonium bromide, reference compound], the “block of Abeta oligomer effects … (in words)” value [1] is reported as “none were active”.
